Laboratory results from ChEMBL document CHEMBL3132769, “Fragment growing to retain or alter the selectivity of anchored kinase hinge-binding fragments” (Medchemcomm, 2014).

What was measured:
[1] = target: T1, Calcium/calmodulin-dependent protein kinase type IV (Homo sapiens) (UniProt Q16566); assay: Inhibition of human full length CAMK4 expressed in baculovirus assessed as substrate phosphorylation using fluorescence-labelled peptides as substrate at 0.2 uM after 90 mins by microfluidic peptide phosphorylation assay
T1 sequence (whole entry): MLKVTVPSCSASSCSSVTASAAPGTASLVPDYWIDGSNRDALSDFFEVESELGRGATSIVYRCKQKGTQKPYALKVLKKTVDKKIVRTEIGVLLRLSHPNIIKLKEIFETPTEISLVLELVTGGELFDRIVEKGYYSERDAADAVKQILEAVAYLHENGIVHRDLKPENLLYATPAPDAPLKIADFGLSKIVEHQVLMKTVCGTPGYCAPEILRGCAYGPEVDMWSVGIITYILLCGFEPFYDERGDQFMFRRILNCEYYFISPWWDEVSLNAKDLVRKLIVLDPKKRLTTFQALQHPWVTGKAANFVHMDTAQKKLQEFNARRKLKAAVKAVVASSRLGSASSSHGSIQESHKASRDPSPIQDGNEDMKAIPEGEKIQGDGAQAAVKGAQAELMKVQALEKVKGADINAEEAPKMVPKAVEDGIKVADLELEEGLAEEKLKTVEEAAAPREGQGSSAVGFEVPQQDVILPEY

[2] = test system: T2, Receptor-type tyrosine-protein kinase FLT3 (Homo sapiens), P36888 [D835Y]; assay: Inhibition of human FLT3 D835Y mutant catalytic domain expressed in baculovirus assessed as substrate phosphorylation using fluorescence-labelled peptides as substrate at 8 uM after 90 mins by microfluidic peptide phosphorylation assay
T2 sequence (whole entry): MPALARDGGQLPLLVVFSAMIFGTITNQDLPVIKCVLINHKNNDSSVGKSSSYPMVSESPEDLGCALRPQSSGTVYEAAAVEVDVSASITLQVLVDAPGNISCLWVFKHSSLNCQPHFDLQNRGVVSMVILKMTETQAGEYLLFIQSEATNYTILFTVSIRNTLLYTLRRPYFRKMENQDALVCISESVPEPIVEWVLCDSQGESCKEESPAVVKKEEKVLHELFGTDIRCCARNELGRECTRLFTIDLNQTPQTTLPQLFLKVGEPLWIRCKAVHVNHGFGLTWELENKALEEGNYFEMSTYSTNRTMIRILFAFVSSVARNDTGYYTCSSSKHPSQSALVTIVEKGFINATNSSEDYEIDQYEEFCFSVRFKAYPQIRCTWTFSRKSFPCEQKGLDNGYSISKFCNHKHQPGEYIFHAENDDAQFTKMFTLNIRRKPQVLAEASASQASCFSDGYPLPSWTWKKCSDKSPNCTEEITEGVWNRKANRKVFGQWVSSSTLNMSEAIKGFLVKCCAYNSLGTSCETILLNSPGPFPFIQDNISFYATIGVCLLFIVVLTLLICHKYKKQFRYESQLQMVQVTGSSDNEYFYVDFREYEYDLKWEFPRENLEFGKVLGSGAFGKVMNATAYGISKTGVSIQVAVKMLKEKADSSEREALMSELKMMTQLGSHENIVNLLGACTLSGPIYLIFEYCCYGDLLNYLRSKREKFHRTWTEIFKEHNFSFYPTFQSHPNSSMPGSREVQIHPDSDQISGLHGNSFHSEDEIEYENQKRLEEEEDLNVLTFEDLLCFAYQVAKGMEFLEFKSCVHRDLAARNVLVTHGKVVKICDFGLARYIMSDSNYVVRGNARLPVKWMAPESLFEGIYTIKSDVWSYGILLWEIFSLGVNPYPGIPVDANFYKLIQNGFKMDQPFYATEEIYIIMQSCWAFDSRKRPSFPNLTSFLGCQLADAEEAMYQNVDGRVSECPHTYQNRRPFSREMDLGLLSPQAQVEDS

[3] = target: T1, Calcium/calmodulin-dependent protein kinase type IV (Homo sapiens); assay: Inhibition of human full length CAMK4 expressed in baculovirus assessed as substrate phosphorylation using fluorescence-labelled peptides as substrate at 2 uM after 90 mins by microfluidic peptide phosphorylation assay
[4] = target: MAP kinase p38 (Homo sapiens) (UniProt O15264+Q15759+Q16539+P53778); assay: Inhibition of human full length p38 beta2 expressed in Escherichia coli cell assessed as substrate phosphorylation using fluorescence-labelled peptides as substrate at 0.06 uM after 90 mins by microfluidic peptide phosphorylation assay
[5] = target: Serine/threonine-protein kinase pim-1 (Homo sapiens) (UniProt P11309); assay: Inhibition of human full length PIM1 expressed in baculovirus assessed as substrate phosphorylation using fluorescence-labelled peptides as substrate at 0.1 uM after 90 mins by microfluidic peptide phosphorylation assay
[6] = target: Mitogen-activated protein kinase 14 (Homo sapiens) (UniProt Q16539); assay: Inhibition of human truncated p38 alpha expressed in Escherichia coli cell assessed as substrate phosphorylation using fluorescence-labelled peptides as substrate at 0.1 uM after 90 mins by microfluidic peptide phosphorylation assay
[7] = target: T3, Serine/threonine-protein kinase Sgk1 (Homo sapiens) (UniProt O00141); details: 0.1 uM
T3 sequence (whole entry): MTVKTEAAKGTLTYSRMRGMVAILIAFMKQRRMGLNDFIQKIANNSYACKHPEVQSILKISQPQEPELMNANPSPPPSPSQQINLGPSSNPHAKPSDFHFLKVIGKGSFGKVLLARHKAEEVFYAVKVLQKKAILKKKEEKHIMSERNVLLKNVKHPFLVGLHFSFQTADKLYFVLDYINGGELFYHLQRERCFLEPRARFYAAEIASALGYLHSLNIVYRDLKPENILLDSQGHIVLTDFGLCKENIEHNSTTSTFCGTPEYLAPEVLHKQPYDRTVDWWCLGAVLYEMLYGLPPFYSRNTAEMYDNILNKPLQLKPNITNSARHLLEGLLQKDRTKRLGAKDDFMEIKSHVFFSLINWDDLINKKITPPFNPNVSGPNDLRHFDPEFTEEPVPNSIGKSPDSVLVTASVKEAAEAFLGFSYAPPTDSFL
Description: Inhibition of human truncated SGK1 expressed in baculovirus assessed as substrate phosphorylation using fluorescence-labelled peptides as substrate at 0.1 uM after 90 mins by microfluidic peptide phosphorylation assay

[8] = target: Ribosomal protein S6 kinase alpha-3 (Homo sapiens) (UniProt P51812); assay: Inhibition of human full length RSK2 expressed in baculovirus assessed as substrate phosphorylation using fluorescence-labelled peptides as substrate at […] after 90 mins by microfluidic peptide phosphorylation assay
[9] = target: Platelet-derived growth factor receptor alpha (Homo sapiens) (UniProt P16234); assay: Inhibition of human PDGFR alpha catalytic domain expressed in baculovirus assessed as substrate phosphorylation using fluorescence-labelled peptides as substrate at 420 uM after 90 mins by microfluidic peptide phosphorylation assay
[10] = target: Insulin-like growth factor 1 receptor (Homo sapiens) (UniProt P08069); assay: Inhibition of human IGF1R catalytic domain expressed in baculovirus assessed as substrate phosphorylation using fluorescence-labelled peptides as substrate at 420 uM after 90 mins by microfluidic peptide phosphorylation assay
[11] = target: MAP/microtubule affinity-regulating kinase 3 (Homo sapiens) (UniProt P27448); assay: Inhibition of human full length c-TAK1 expressed in Escherichia coli cell assessed as substrate phosphorylation using fluorescence-labelled peptides as substrate at 9 uM after 90 mins by microfluidic peptide phosphorylation assay
Sequence of MAP/microtubule affinity-regulating kinase 3 (Homo sapiens) (P27448 whole entry, looked up): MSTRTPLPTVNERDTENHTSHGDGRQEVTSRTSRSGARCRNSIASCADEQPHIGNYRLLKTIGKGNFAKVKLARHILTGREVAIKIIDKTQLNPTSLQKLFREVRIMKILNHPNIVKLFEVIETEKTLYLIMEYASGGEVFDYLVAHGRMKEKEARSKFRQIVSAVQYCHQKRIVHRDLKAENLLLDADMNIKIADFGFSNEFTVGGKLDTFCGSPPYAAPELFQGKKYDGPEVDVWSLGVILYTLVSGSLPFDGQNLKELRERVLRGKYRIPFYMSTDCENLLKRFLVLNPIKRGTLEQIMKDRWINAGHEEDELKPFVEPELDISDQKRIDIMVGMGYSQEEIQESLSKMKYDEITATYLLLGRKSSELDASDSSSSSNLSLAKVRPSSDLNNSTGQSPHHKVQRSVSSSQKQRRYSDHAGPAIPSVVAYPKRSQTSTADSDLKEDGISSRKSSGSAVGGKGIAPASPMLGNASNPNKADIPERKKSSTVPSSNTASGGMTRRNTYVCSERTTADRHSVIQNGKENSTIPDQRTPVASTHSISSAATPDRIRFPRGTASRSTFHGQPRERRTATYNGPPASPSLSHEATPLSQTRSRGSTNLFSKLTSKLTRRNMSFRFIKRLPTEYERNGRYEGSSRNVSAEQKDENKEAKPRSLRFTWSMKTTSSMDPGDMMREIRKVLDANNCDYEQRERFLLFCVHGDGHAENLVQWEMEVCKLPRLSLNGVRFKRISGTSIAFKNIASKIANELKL

Sequence of MAP kinase p38 (Homo sapiens) (O15264 whole entry, looked up): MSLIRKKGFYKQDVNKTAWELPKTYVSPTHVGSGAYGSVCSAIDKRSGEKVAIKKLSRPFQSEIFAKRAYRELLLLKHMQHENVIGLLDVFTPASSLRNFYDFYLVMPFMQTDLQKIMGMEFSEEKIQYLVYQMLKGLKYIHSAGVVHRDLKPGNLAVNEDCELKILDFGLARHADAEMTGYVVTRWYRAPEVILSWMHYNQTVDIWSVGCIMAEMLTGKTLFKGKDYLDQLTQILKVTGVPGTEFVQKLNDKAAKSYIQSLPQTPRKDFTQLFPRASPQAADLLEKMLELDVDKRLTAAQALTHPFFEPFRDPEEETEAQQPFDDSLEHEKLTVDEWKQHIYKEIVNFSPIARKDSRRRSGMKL
Sequence of MAP kinase p38 (Homo sapiens) (P53778 whole entry, looked up): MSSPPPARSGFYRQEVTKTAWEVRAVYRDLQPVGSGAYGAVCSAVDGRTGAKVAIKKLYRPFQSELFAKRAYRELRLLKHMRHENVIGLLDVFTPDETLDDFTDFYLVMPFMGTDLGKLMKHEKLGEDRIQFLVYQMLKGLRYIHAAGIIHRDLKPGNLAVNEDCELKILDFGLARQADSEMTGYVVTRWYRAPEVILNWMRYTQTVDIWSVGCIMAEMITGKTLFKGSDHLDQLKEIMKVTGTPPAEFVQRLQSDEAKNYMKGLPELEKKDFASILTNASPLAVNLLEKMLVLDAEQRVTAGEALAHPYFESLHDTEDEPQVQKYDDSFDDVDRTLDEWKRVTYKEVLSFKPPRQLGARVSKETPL
Sequence of MAP kinase p38 (Homo sapiens) (Q15759 whole entry, looked up): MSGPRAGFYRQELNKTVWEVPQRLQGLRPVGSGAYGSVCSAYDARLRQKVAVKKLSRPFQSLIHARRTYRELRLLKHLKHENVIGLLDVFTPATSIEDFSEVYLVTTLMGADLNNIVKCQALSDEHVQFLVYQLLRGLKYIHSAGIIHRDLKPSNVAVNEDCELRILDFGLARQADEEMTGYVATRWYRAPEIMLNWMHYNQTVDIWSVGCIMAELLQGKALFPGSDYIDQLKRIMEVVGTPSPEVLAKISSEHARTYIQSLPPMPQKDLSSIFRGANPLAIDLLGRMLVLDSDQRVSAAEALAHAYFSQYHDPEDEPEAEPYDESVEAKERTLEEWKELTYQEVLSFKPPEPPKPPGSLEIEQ
Sequence of MAP kinase p38 (Homo sapiens) (Q16539 whole entry, looked up): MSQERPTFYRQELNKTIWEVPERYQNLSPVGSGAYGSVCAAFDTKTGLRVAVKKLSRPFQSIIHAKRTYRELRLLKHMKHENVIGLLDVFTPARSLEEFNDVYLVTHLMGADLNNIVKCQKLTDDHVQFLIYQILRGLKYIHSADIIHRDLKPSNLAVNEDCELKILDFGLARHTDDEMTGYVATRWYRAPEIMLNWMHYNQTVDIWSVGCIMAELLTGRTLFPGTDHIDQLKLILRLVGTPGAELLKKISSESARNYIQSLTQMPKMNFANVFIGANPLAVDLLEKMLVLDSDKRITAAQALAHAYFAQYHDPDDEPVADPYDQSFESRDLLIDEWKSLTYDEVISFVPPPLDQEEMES
Sequence of Serine/threonine-protein kinase pim-1 (Homo sapiens) (P11309 whole entry, looked up, the tested form may be a part): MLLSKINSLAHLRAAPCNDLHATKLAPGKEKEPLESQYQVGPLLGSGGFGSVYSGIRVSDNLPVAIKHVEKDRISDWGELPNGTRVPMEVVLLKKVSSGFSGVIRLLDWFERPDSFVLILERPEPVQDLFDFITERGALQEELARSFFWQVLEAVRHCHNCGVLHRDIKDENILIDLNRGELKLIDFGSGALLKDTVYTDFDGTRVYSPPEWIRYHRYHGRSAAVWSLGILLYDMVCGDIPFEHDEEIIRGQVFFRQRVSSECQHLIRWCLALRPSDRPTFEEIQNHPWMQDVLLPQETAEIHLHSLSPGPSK
Sequence of Mitogen-activated protein kinase 14 (Homo sapiens) (Q16539 whole entry, the tested form may be a part): as the sequence (Q16539 whole entry, looked up) above
Sequence of Platelet-derived growth factor receptor alpha (Homo sapiens) (P16234 whole entry, the tested form may be a part): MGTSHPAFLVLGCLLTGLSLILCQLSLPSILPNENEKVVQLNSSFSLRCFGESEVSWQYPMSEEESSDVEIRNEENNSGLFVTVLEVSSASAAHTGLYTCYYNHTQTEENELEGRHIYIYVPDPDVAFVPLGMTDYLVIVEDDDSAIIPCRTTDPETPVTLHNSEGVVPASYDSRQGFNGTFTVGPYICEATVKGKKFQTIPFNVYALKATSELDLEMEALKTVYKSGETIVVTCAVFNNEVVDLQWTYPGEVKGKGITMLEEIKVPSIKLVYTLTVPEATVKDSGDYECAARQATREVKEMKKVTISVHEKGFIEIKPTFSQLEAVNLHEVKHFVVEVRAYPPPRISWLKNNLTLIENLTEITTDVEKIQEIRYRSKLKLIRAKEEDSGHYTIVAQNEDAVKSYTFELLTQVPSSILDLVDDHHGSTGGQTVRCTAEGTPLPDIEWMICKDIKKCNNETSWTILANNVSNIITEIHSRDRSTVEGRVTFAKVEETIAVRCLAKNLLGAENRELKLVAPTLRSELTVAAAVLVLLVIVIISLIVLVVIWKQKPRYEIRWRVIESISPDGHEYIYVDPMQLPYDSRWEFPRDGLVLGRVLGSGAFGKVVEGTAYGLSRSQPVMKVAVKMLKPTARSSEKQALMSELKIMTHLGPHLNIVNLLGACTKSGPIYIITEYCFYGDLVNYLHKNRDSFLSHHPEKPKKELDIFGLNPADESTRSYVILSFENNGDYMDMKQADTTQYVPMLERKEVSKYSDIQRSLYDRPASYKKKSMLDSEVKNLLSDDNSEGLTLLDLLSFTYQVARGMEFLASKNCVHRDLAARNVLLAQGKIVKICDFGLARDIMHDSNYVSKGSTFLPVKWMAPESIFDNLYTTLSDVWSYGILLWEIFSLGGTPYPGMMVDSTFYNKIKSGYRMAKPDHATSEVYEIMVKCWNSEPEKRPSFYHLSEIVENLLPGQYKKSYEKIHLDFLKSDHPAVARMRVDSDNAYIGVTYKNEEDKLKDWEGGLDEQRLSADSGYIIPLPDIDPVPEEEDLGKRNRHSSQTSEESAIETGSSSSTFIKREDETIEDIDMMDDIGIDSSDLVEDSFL
Sequence of Ribosomal protein S6 kinase alpha-3 (Homo sapiens) (P51812 whole entry, the tested form may be a part): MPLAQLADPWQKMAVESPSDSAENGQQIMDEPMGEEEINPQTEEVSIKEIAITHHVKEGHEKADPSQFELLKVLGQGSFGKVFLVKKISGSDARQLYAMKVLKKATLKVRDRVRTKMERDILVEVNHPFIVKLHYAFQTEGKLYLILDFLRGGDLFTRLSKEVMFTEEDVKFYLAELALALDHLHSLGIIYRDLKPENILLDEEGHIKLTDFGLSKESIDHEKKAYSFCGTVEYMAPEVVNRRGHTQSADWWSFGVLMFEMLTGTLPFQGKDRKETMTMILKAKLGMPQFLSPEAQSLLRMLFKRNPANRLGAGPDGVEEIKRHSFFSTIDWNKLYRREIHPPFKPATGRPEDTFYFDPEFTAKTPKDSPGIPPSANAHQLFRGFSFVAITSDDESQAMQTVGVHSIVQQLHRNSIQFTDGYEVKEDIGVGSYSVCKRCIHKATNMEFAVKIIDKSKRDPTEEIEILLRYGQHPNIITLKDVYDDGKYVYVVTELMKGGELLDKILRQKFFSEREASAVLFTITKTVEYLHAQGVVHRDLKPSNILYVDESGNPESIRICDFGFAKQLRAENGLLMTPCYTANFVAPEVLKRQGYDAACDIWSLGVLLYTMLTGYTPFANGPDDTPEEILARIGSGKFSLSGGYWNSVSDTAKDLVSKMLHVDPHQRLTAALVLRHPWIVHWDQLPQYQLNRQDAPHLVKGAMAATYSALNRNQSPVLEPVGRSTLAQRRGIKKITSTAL

Clc1ccc(C2(c3ccc(-c4ncnc5[nH]cnc45)cc3)CCNCC2)cc1
inhibition [1]: 74%

NCC1CCN(c2ncnc3[nH]ccc23)CC1
inhibition [2]: 4.5%

NC1CCN(c2ncnc3[nH]ccc23)CC1
inhibition [3]: 12%

NC1(Cc2ccc(Cl)cc2)CCN(c2ncnc3[nH]ccc23)CC1
inhibition [4]: 9%

C[C@H](CN(C)C)Oc1nc(Nc2cc3cccc(Cl)c3cn2)cnc1C#N
inhibition [5]: 9.5% | inhibition [6]: 1% | inhibition [7]: 0%

COC(=O)c1cnc(Nc2cnc(C#N)cn2)cc1NCC1CCNCC1
inhibition [8]: 42%

c1nc(N2CCOCC2)c2nc[nH]c2n1
inhibition [9]: 32.5% | inhibition [10]: 15%

NCC1CN(c2ncnc3[nH]c4cnccc4c23)CCO1 (stereo unspecified)
inhibition [11]: 30%
